Assay results as given in patent US10562857B2 (AFASCI, Inc., priority 2015, dated 2020).
“Also recorded” adds a separate entry of the source.

Legend:
SNI rats [1] = experiment: Spared nerve injury (SNI) rats, von Frey monofilament test; type: in vivo, rat; conditions: for duration of elevated mechanical thresholds: 10 mg/kg P.O.
Description: FIG. 3B. Mechanical pain threshold assessment (von Frey monofilament test) of SNI rats' left hindpaws. Each SNI rat received either EXAMPLE-106, -107, and -115 (each 30 mg/kg, 1 mL I.P.), or vehicle (1 mL I.P. 2% DMSO in 0.5% HPC). Sham rats also received vehicle I.P. injections. […] The sham-vehicle serves as a positive control. Thermal and mechanical pain responses were measured once every hour for 8 consecutive hours after I.P. treatment (n=8 rats per treatment group).
FIG. 4. Mechanical pain threshold assessment (von Frey monofilament test) of left hindpaws in another cohort of SNI rats. Each SNI rat received either EXAMPLE-128, -130, -132, or Z944 (as a reference compound, each 10 mg/kg, 2 mL oral gavage, P.O.). […] Mechanical pain responses were measured at pre-dosing, 1, 2, 4, and 6 hours post-treatment using von Frey monofilament test (n=8 rats per group).
In additional examples shown here, the analgesic effects were further evaluated in another rat species. Baseline thermal and mechanical thresholds of male rats (Sprague-Dawley rats, 275 g-325 g, Harlan) were taken prior to surgery; baseline thresholds were measured on the rats' left hindpaws. Thirty-two rats underwent the SNI surgery on their left hind leg; 8 rats underwent surgery without injury of the nerves as a sham group. Two weeks post-surgery, the thermal thresholds of each rat were reassessed. […] Each rat received either EXAMPLE-106, -107, -115 (each 30 mg/kg, 1 mL I.P.), or vehicle (2% DMSO in 0.5% HPC). Thermal and mechanical thresholds were measured at 1, 2, 3, 4, 5, 6, 7, and 8 hours post-treatment/dosing. […] The drug actions started around 1 hour post-injection and peaked between 2 and 3 hours, and the drug effects gradually declined to pre-treatment levels over 6-7 hours (FIGS. 3A and B).
In another cohort of SNI rats ((n=8 per group)), mechanical thresholds were measured at pre-dosing, 1, 2, 4, and 6 hours post-treatment using von Frey monofilament test.

[2] = Metabolic stability in human liver microsomes; type: in vitro ADME
Text: (§1) In vitro data of metabolic stability and protein binding as well as in vivo pharmacokinetic data for compounds of the invention can be generated using the techniques disclosed in, e.g., Obach, R. S. et al., J. Pharmacol. Exp. Ther. 283(1): 46-58 (1997), which is hereby incorporated by reference in its entirety. Various biological, pharmacokinetic and other properties of the compounds, including hepatic microsomal stability, determination of metabolites, binding to proteins such as plasma protein binding, and in vivo studies, including single-dose and multi-dose pharmacokinetic studies, can be determined using the protocols described in that publication and the publications cited therein. Other aspects and advantages of the present invention will become apparent from the above detailed description, as illustrated by way of example of the principles of the invention. The scope of the invention is to be defined by the claims appended hereto and their equivalents. Selected pharmacokinetic studies in vitro and in vivo in rats were performed for preferred compounds, for example EXAMPLE-128 and compared with two reference compounds ML218 and Z944 by a contract research organization (BioDuro, Inc., San Diego, US). Tables 3A and 3B summarize some of the in vitro and vivo pharmacodynamic and pharmacokinetic parameters, respectively.

[3] = Metabolic stability in rat liver microsomes; type: in vitro ADME
Text: as §1

SNL rats = experiment: Spinal nerve ligation (SNL) rats, von Frey monofilament test; type: in vivo, rat; conditions: for order of analgesic efficacy against allodynia: each 30 mg/kg P.O.; for SNL Model Mechanical % of baseline: pain in rats, 30 mg/kg, P.O.
Description: FIG. 5A. Mechanical pain threshold assessment (von Frey monofilament test) of spinal nerve ligation (SNL) rats' left hindpaws. Each SNL rat received either EXAMPLE-128, at 3, 10 or 30 mg/kg (2 mL oral gavage, P.O.), or vehicle (2 mL 2% DMSO in 0.5% HPC, P.O.). […] Mechanical pain responses were measured at 1, 2, 4 and 6 hours after treatment (n=8 rats per treatment group).
FIG. 5B. Mechanical pain threshold assessment (von Frey monofilament test) of SNL rats' left hindpaws. In the same cohort of animals, each SNL rat received either EXAMPLE-128, -130, Z944 (as a reference compound, each at 30 mg/kg, 2 mL oral gavage, P.O.), or vehicle (2 mL 2% DMSO in 0.5% HPC, P.O.). The degree of analgesia against allodynia in the order of EXAMPLE-128>Z944>EXAMPLE-130 compared to the […] group. Mechanical pain responses were measured at 1, 2, 4 and 6 hours after treatment (n=8 rats per treatment group).
The spinal nerve ligation (SNL) in rats is another commonly used neuropathic pain model (Kim & Chung, 1992). The analgesic effect of the selected EXAMPLE-128 was tested in this model. Baseline mechanical thresholds on the rats' left hindpaws of male rats (Sprague-Dawley rats, 300 g-350 g, Harlan) were taken using von Frey hair monofilaments prior to surgery. Ligation of the L5 peripheral nerve was made on the left side under anesthesia. Total 32 rats underwent surgery (n=8 rats per treatment group). Ten days post-surgery, approximately 75-85(%) reduction in mechanical pain was observed, confirming the presence of mechanical allodynia in the SNL rats. Each rat received either EXAMPLE-128 (at 3, 10 and 30 mg/kg, each dose in […], P.O.), or vehicle (2% DMSO in 0.5% HPC, […], P.O.). Mechanical thresholds were measured at 1, 2, 4, and 6 hours post-treatment/dosing. […] The drug actions started around 1 hour post-injection and peaked between 1 and 2 hours, and the drug effects gradually declined to pre-treatment levels in 6 hours (FIG. 5A). After the drug had been eliminated, and the thresholds had returned to initial mechanical allodynia, a comparative test of EXAMPLE-128 and -130 vs Z944 (each at 30 mg/kg, P.O.) was conducted in the same cohort of SNL rats. The analgesic efficacy is in the order of EXAMPLE-128>Z944>EXAMPLE-130 (FIG. 5B).

[4] = Plasma protein binding, rat; type: in vitro ADME; conditions: for fraction unbound: read-out: PPB % (Rat) (converted)
Text: as §1

SNI rats [5] = experiment: Spared nerve injury (SNI) rats, von Frey monofilament test; type: in vivo, rat; conditions: pain in rats, 30 mg/kg, P.O.
Plasma stability, rat = type: in vitro ADME
Text: as §1

[6] = Plasma protein binding, human; type: in vitro ADME; conditions: for fraction unbound: read-out: PPB % (Human) (converted)
Text: as §1

Rat pharmacokinetics = type: in vivo; conditions: for half-life / AUC / bioavailability: plasma; for AUC: read-out: Rat PK AUCfree; for bioavailability: read-out: Rat PK F (%) bioavailability
Text: as §1

Plasma stability, human = type: in vitro ADME
Text: as §1

[7] = 10 mg/kg oral gavage, P.O., 10 mg/kg
[8] = SNL rats, 3, 10 and 30 mg/kg P.O.
[9] = iv, read-out: Plasma t1/2 (h) iv (converted)
[10] = po, read-out: Plasma t1/2 (h) po (converted)
[11] = read-out: Human Liver Microsomes Clint (μL/min/mg protein)
[12] = read-out: Human Liver Microsomes t1/2
[13] = read-out: Rat Liver Microsomes Clint (μL/min/mg protein)
[14] = read-out: Rat Liver Microsomes t1/2

Row | SMILES | duration of elevated mechanical thresholds (SNI rats [1]) | mechanical pain threshold of left hindpaw (allodynia) (SNI rats [1]; [7]) | order of analgesic efficacy against allodynia (SNL rats; SNL rats) | SNL Model Mechanical % of baseline (SNL rats) | recovery [4] [%] | fraction unbound [4] | SNI-Model Mechanical % of baseline (SNI rats [5]) | Plasma Stability @ 5 h % (Rat) (Plasma stability, rat) [%] | recovery [6] [%] | fraction unbound [6] | Rat PK AUCtotal (μM*h) (Rat pharmacokinetics) [h/µM] | half-life (Rat pharmacokinetics; [9]) [h] | half-life (Rat pharmacokinetics; [10]) [h] | AUC (Rat pharmacokinetics) [µM·h] | bioavailability (Rat pharmacokinetics) [%] | Plasma Stability @ 5 h % (Human) (Plasma stability, human) | microsomal CLint [2, 11] [µL/min/mg] | half-life [2, 12] [h] | microsomal CLint [3, 13] [µL/min/mg] | half-life [3, 14] [h] | also measured
1 | CC(C)(C)NC(=O)CN1CCC2(CC1)CC2NC(=O)c1cc(F)cc(Cl)c1 (single isomer, unassigned) [Example 128, (S)—N-(6-(2-(tert-Butylamino)-2-oxoethyl)-6-azaspiro[2.5]octan-1-yl)-3-chloro-5-fluorobenzamide or (R)—N-(6-(2-(tert-Butylamino)-2-oxoethyl)-6-azaspiro[2.5]octan-1-yl)-3-chloro-5-fluorobenzamide] | approximately 4 hours | elevated mechanical thresholds; also recorded: reduced allodynia | EXAMPLE-128>Z944>EXAMPLE-130 | 129 ± 28 % of baseline | 90.4 | 0.242 | 45 ± 15 % of baseline | 98.3 | 98.3 | 0.043 | 4.1 | 3.34 | 3.66 | 1 | 62 | 95.7/ % | – | – | – | – | half-life [2]: 6.08 h; microsomal CLint [2]: 1.9 µL/min/mg; half-life [3]: 5.25 h; microsomal CLint [3]: 2.2 µL/min/mg; start of drug action post-injection (SNL rats; [8]): around 1 hour; time for drug effects to decline to pre-treatment levels (SNL rats; [8]): 6 h; mechanical pain threshold of left hindpaw (allodynia) (SNL rats; SNL rats, 3, 10 or 30 mg/kg P.O.): elevated mechanical thresholds in a dose-related manner; also recorded: reduced allodynia compared to the SNI-vehicle group in a dose-related manner
2 | CC(C)(C)NC(=O)CN1CCC2(CC1)C[C@H]2NC(=O)c1cc(F)cc(C(F)(F)F)c1 (single isomer, unassigned) [Example 130, (R)—N-(6-(2-(tert-Butylamino)-2-oxoethyl)-6-azaspiro[2.5]octan-1-yl)-3-fluoro-5-(trifluoromethyl)benzamide or (S)—N-(6-(2-(tert-Butylamino)-2-oxoethyl)-6-azaspiro[2.5]octan-1-yl)-3-fluoro-5-(trifluoromethyl)benzamide] | approximately 4 hours | elevated mechanical thresholds; also recorded: reduced allodynia | EXAMPLE-128>Z944>EXAMPLE-130 | – | – | – | – | – | – | – | – | – | – | – | – | – | – | – | – | – | –
3 | CC(C)(C)NC(=O)CN1CCC2(CC1)C[C@H]2C(=O)Nc1cc(C(F)(F)F)cc(C(F)(F)F)c1 (single isomer, unassigned) [Example 132, (R)—N-(3,5-Bis(trifluoromethyl)phenyl)-6-(2-(tert-butylamino)-2-oxoethyl)-6-azaspiro[2.5]octane-1-carboxamide or (S)—N-(3,5-Bis(trifluoromethyl)phenyl)-6-(2-(tert-butylamino)-2-oxoethyl)-6-azaspiro[2.5]octane-1-carboxamide] | approximately 4 hours | elevated mechanical thresholds; also recorded: reduced allodynia | – | – | – | – | – | – | – | – | – | – | – | – | – | – | – | – | – | – | –
4 | O=C(Nc1nnc(-c2ccccc2)o1)c1ccc(Cl)s1 [Example 115, 5-Chloro-N-(5-phenyl-1,3,4-oxadiazol-2-yl)thiophene-2-carboxamide] | – | – | – | – | – | – | – | – | – | – | – | – | – | – | – | – | – | – | – | – | start of drug action post-injection (SNI rats [1]; 30 mg/kg I.P., thermal and mechanical thresholds): around 1 hour; mechanical pain threshold of left hindpaw (allodynia) (SNI rats [1]; 30 mg/kg, 1 mL I.P.): elevated both thermal and mechanical thresholds; also recorded: reduced allodynia
5 | CC(C)(C)CCN1C[C@@H]2[C@@H](CNC(=O)c3cc(Cl)cc(Cl)c3)[C@@H]2C1 [ML218, 3,5-Dichloro-N-[[(1α,5α,6-exo,6α)-3-(3,3-dimethylbutyl)-3-azabicyclo[3.1.0]hex-6-yl]methyl]benzamide, reference compound] | – | – | – | – | 94.9 | 0.108 | 45 ± 11 % of baseline | 99.2 | 97.1 | 0.046 | 0.071 | 236 | – | 0.007 | 28 | 97.9/ % | 1.1 | 10.5 | 5.5 | 2.1 | –
6 | CC(C)(C)NC(=O)CN1CCC(CNC(=O)c2cc(F)cc(Cl)c2)CC1 [Z944, reference compound] | approximately 4 hours | elevated mechanical thresholds; also recorded: reduced allodynia | EXAMPLE-128>Z944>EXAMPLE-130 | 94 ± 38 % of baseline | 91.1 | 0.287 | 28 ± 18 % of baseline | 100 | 93.6 | 0.064 | 0.51 | 1.5 | 2.26 | 0.14 | 55 | 100/ % | 5.5 | 2.1 | 13.2 | 0.875 | –
